This is an account of results in paper PMC3335822 (PLoS ONE, 2012).

What is called IC50 is the concentration at which inhibition is half-maximal. Lower therefore signals inhibition by little substance.

The target of one series is T1, human EYA3 (Homo sapiens, UniProt Q99504).
T1 construct: residues 127–573 of NM_001990, isoform 1; His-GST (poly-histidine, glutathione-S-transferase) with TVMV protease site (cleaved yes); made in house
T1 sequence (Q99504 127-573): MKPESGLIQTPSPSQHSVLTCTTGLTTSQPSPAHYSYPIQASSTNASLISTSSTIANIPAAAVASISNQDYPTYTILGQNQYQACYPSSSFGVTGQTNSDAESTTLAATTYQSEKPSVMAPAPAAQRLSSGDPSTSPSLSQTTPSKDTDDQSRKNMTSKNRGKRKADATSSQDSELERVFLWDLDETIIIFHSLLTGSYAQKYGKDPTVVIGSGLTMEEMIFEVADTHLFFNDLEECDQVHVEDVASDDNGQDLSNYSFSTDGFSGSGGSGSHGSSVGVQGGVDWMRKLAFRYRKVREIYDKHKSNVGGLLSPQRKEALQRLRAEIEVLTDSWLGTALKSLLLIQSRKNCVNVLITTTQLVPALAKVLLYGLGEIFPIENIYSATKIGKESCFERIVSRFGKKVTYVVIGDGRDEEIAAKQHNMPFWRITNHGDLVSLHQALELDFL
Put plainly: pNPP hydrolysis by full-length EYA3. In kind it is biochemical. The source says:
The catalytic domain (ED) of mouse Eyes Absent 3 (Eya3(223–510)) was purified as described before. Human Eyes Absent 3 isoform 2 (representing the major species identified in human cell lines by mass spectrometry and residues 127–573 of NM_001990, isoform 1) was sub-cloned into pDEST565 to express a poly-histidine- Glutathione-S-transferase (His-GST) tagged fusion protein with a TVMV protease site. The protein was purified by glutathione-S-transferase affinity chromatography followed by TVMV cleavage, Ni-NTA chromatography, and finally size exclusion chromatography. […]
(§1) Compounds were dissolved in DMSO and diluted as needed. […] Reactions were incubated at 30°C for 30 minutes and quenched with 100 mM EDTA pH 10. IC50 values were then calculated directly from regression curves using PRISM. All reported values are the mean of two independent experiments.

The subject of another series is mouse aortic rings. Put plainly: Mouse aortic ring assay (ex vivo sprouting angiogenesis, VEGF-stimulated). The conditions noted are these: 5 μM, 10 days. How it is done:
The preparation of rat collagen and the aortic ring assay were carried out as previously described, [50]. Mice were 4 to 6 week old female C57BL/6, and aortic ring explants were cultured at 37°C in a humidified incubator under a 5% CO2 atmosphere.
Each inhibitor was serially diluted (between 0.25 mM and 7.5 mM) to stocks of 1000× the working concentrations in sterile 100% DMSO in order to achieve an equal final concentration of DMSO (0.1% v/v) in all culture conditions. For the experiments, the compounds were diluted in EBM containing 2.5% FBS, penicillin/streptomycin and 20 ng/ml VEGF165 (R&D Systems, Minneapolis, MN). Each compound was applied from the first day of culture over a 10-day period with medium change every two days. In all experiments, the vehicle (DMSO, 0.1%) was used as control. The sprouting density was derived from counting the number of branches per ring, and the extent of angiogenic sprouting was estimated by measuring the total surface area covered by the vessels.

Another series has as its system zebrafish embryos. Put plainly: Analysis of zebrafish vasculature, Tg(kdrl:EGFP) embryos. Conditions: exposure from about 5 hpf, analysis at 28–30 hpf. It is filed as in vivo. How it is done: Tg(kdrl:EGFP)^s843 zebrafish line was used for vascular analysis. Embryos were maintained in fish water until the 50% epiboly stage (5.25 hpf) and were transferred into wells of 24-well plate containing the inhibitors in fish water. All incubation was performed at 28.5°C. The analysis for vascular defects was performed at the 28–30 hpf stages, and embryos were imaged using a fluorescence microscope.

Details of series [1]: method as in PMID 20214587. Conditions: cited from earlier work.
The target of the next series is T2, human EYA2(ED) (Homo sapiens, UniProt O00167).
T2 sequence (O00167 267-538 limits assumed): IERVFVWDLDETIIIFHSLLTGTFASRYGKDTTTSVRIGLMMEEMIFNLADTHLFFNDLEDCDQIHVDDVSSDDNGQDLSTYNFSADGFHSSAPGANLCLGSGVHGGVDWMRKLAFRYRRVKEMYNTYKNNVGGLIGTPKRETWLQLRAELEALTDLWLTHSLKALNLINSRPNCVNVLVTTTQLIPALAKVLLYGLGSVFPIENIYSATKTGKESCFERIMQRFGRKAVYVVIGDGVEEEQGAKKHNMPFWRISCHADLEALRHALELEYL
Put plainly: pNPP hydrolysis by the catalytic domain of EYA2. It is filed as biochemical. Conditions: substrate pNPP. How it is done:
The catalytic domain of human Eyes Absent 2 was similarly sub-cloned as a poly-histidine fusion construct in the vector pDEST-527. Fusion protein was purified by Ni-NTA chromatography and followed by size-exclusion chromatography over a Superdex-75 column. The relative purity of protein samples was determined using SDS-PAGE. PTP1B was purified as described previously.
The NCI Diversity Set II was obtained from the NCI in 96-well trays from the NIH Molecular Libraries Program and stored as 10 mM stocks in DMSO. An initial manual screen was conducted using the previously described p-nitrophenylphosphate assay and mouse Eya3(223–510) in a reaction mixture containing 20 mM MES pH 6, 2 mM MgCl2, 125 μM inhibitor, 3.4 mM para-nitrophenol phosphate (pNPP) and 0.01 μg/µL enzyme. The amount of 4-nitrophenol (pNP) produced was monitored at […] on a BioTek EL808 plate reader. A similar protocol was used to screen for inhibitor activity using hEYA3 and hEYA2(ED).
as §1

The next series addresses T3, EYA3-SIX2 interaction (Homo sapiens, UniProt Q99504).
T3 construct: residues 127–573 of NM_001990, isoform 1; His-GST (poly-histidine, glutathione-S-transferase) with TVMV protease site (cleaved yes); made in house
T3 sequence (Q99504 127-573): T1 sequence (Q99504 127-573)
T3 sequence (Q9NPC8 1-291 partner): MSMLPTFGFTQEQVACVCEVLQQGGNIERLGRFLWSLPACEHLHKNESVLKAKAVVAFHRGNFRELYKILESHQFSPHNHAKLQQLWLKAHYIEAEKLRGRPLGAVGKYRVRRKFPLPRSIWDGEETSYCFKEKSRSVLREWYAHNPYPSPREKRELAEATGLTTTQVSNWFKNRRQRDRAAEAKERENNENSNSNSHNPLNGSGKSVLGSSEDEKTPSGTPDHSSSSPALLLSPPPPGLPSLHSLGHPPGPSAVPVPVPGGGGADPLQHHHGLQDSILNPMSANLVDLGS
Put plainly: His-SIX2 Ni-NTA pull-down of EYA3. In kind it is binding. Conditions: 50 μM, 15 minutes at room temperature. The text has this: The catalytic domain of the EYAs also mediates its interaction with the SIX proteins. This complex then translocates to the nucleus where the SIX-EYA complex can activate transcription.

At human EYA3 (full-length human EYA3, substrate pNPP), `CCc1oc2ccccc2c1C(=O)c1ccc(O)cc1` [Compound 1a, Benzarone] had an IC50 of 17 µM. In the series with mouse aortic rings, the “effect on sprouting of aortic rings” value was “shorter sprouts and significantly lower microvascular density”. For the same compound, the “effect on the developing vasculature” value in the series on zebrafish embryos is recorded as “reduced the number of intersegmental vessels, but were less potent”. Moreover, the hepatotoxicity entry in series [1] is “reported hepatotoxicity”.
For the compound `CCc1oc2ccccc2c1C(=O)c1cc(Br)c(O)c(Br)c1` [Compound 1, Benzbromarone], at human EYA3 (0.01% Triton X-100), the “inhibitory effect in the presence of detergent” value was “inhibitory effect was retained”. Besides, the IC50 at human EYA2(ED) turned out to be 10.3 µM. Moreover, the “effect on the interaction between EYA3 and SIX2” value on EYA3-SIX2 interaction is “does not affect the interaction between EYA3 and SIX2”. In addition, the “effect on sprouting of aortic rings” value with mouse aortic rings is “shorter sprouts and significantly lower microvascular density”. The “effect on the developing vasculature” value with zebrafish embryos is given as “significant reduction of intersegmental vessels even at the lowest dose tested (0.25 μM)”. The hepatotoxicity result in series [1] is “reported hepatotoxicity”.
